The source of these data is patent EP1452605A1, “Method for determining antiviral activity” (Universiteit Utrecht Holding B.V., priority 2003, dated 2004).

For one series, the system named is HIV-1HXB2. In words: Reverse transcription assay in PBMC: (-) strong stop and gag DNA by real-time Taqman PCR. In kind it is cell-based. Particulars: 10h after infection. Here is the method:
PBMC infection with HIV-1Ba-L or HIV-1HXB2 for real-time Taqman PCR The ability of HIV-1Ba-L to enter the cells in the presence of APHS was tested using DS as positive control (entry assay). The amount of HIV-1HXB2 reverse transcription products in the presence of APHS was also tested, using AZT as positive control (reverse transcription assay). Before infection, PHA-stimulated PBMC from the PBMC batch were pre-incubated with different concentrations of APHS, DS or AZT for 24 h. Afterwards, cells were washed and 1 × 10^6 PBMC were incubated for 40 min with HIV-1Ba-L or HIV-1HXB2 at an M.O.I. of 0.0025 and with appropriate concentrations of APHS, AZT, DS or medium in the presence of 1/20 concentrated M buffer (Roche) and 4U/ml DNase (Roche) to digest possible contaminating viral DNA associated with the virions. Afterwards PBMC were washed and resuspended in medium with or without compounds. Cells were treated with 1 mg/ml Pronase (Roche) to remove virus particles bound to the cells. […] At different time points, 1.0 × 10^6 cells were added to 900 µl Nuclisens lysis buffer (Organon Teknika, Boxtel, The Netherlands) containing 40 µl silica to bind total nucleic acids (Nuclisens isolation kit). For the entry assay, samples were collected 2h after the start of the infection and for the reverse transcription assays samples were collected 2, 7 and 10h after the start of the infection.
HIV RNA and DNA were extracted from samples of infected cells according to a method described before ^23. Briefly, after 10 min of mixing the silica and lysis buffer, tubes were shortly centrifuged at 13,000 rpm and supernatant was discarded. Free non-nucleic acid components were removed by washing the silica particles twice with Nuclisens washing buffer, twice with 70 % ethanol and once with acetone. The silica pellet was dried for 10 min at 56 °C. Total nucleic acids were eluted by resuspending the pellet in 100 µl nuclease-free water. After mixing the tubes for 10 min at 56 °C, tubes were shortly centrifuged and the supernatant was transferred to a new tube and stored at -20 °C.
Real-time Taqman PCR is based on cleavage of a probe, hybridized to the target sequence by 5'-3' nuclease activity of Taq DNA polymerase during amplification, as described previously ^24. Briefly, target sequence-specific forward and reverse primers prime the amplification reaction. The probe contains a reporter dye at the 5' end and a quencher dye at the 3' end. When both dyes are attached to the probe, reporter dye emission is quenched. The probe is displaced from the target during each polymeration cycle. Once separated from the quencher, the reporter dye emits its characteristic fluorescence, which can then be measured. The amount of fluorescence measured is proportional to the amount of PCR product.
HIV-1 gag cDNA and HIV-1 (-) strong stop and gag DNA were amplified and quantified by real-time Taqman PCR as described elsewhere ^25. Sets of primers/probes were designed according to a previous study by Zack and colleagues ^26. To quantify the amount of gag RNA in the samples, a cDNA standard curve was prepared from five-fold dilutions of extracted RNA from an HXB2 viral batch, of which the RNA amount was previously determined. To quantify (-) strong stop and gag DNA in the samples, a DNA standard curve was prepared from five-fold dilutions of DNA extracted from U1 cells, which contain two copies of the HIV-1HXB2 genome per cell. Albumin was also quantified and used for normalization of all samples.

Another series relates to HIV-1Ba-L. In words: Entry assay: gag RNA in PBMC by real-time Taqman PCR. The settings on record: gag RNA in PBMC 2h after infection, 10 or 30 µM APHS. In kind it is cell-based. Here is the method:
PBMC infection with HIV-1Ba-L or HIV-1HXB2 for real-time Taqman PCR The ability of HIV-1Ba-L to enter the cells in the presence of APHS was tested using DS as positive control (entry assay). The amount of HIV-1HXB2 reverse transcription products in the presence of APHS was also tested, using AZT as positive control (reverse transcription assay). Before infection, PHA-stimulated PBMC from the PBMC batch were pre-incubated with different concentrations of APHS, DS or AZT for 24 h. […]
Real-time Taqman PCR is based on cleavage of a probe, hybridized to the target sequence by 5'-3' nuclease activity of Taq DNA polymerase during amplification, as described previously ^24. […] Once separated from the quencher, the reporter dye emits its characteristic fluorescence, which can then be measured. The amount of fluorescence measured is proportional to the amount of PCR product.
HIV-1 gag cDNA and HIV-1 (-) strong stop and gag DNA were amplified and quantified by real-time Taqman PCR as described elsewhere ^25. […] To quantify the amount of gag RNA in the samples, a cDNA standard curve was prepared from five-fold dilutions of extracted RNA from an HXB2 viral batch, of which the RNA amount was previously determined.
(Quantitative PCR measures a nucleic acid by following its amplification.)

The next series deals with 41+215Y. In words: Drug susceptibility assay (cell-killing MTT assay) in MT-2 cells. The settings on record: AZT-resistant strain 41+215Y, 5 days. (In general: Tetrazolium assays rely on reduction of a dye to a coloured formazan, in cell work by metabolically active cells.)
In another series the test system is RSV serotype A. In words: RSV infection of HEp-2 cells, FACS with FITC anti-RSV antibody. In kind it is cell-based, Respiratory syncytium virus (RSV). The settings on record: HEp-2 cells, 4, 5 and 6 days, all APHS concentrations tested. The procedure:
RSV infection of the HEp-2 cell line was performed as described elsewhere (Hament J-M et al., submitted for publication). Briefly, HEp-2 cells were recovered from the culture flasks by trypsinization. Concentrations of HEp-2 cells were determined by microscopic observation in order to have a confluent monolayer at the day of measurement. HEp-2 cells were incubated with APHS and infected with different dilutions of RSV in order to have a good infection at the day of measurement. […] The cells were washed with PBS^2+ (PBS containing 0.15 mM Ca^2+ and 0.5 mM Mg^2+) and incubated with murine-anti-RSV monoclonal antibody conjugated to fluorescein isothiocyanate (FITC) (DAKO, Cambridgeshire, UK) for 15 minutes at 37 °C. Afterwards, cells were washed and resuspended in PBS^2+. Percentage of fluorescent cells was analyzed by FACSCalibur flow cytometer (Becton Dickinson, CA, USA) with computer assisted evaluation data (CellQuest Pro).

For series [1] the following is noted: concentrations of APHS up to 100 mg/kg; cited from earlier work.
A further series has as its system MHV-A59. The series is described as follows: MHV infection of mouse L cells, CPE scoring. In kind it is cell-based, Mouse hepatitis virus (MHV). Particulars: 24h, 143 to 0.009 µM. Here is the method: After 24h, the cytopatic effect (CPE) of the virus and the cytotoxicity of the compounds were scored by microscopic observation.

Description for 41+215Y: The cells were maintained at 37°C, 5% CO2. One day prior to the experiments, the cells were passaged 1:1 in a concentration of 1 × 10^6 cells/ml.
The genes that contain the drug resistance mutations are excised from the clinical isolates and cloned into the genetic background of HXB2. Thus all tested HIV-1 strains have the same genetic background. […] This strain contains an insertion of two a.a. between codons 68 and 69 of RT as well as an a.a. change at codon 67.
After 5 days of incubation a cellular viability assay was performed as described above. In this case, the amount of formazan reflects the number of cells protected by the drug against killing by the virus and is used as a read out for drug susceptibility.

The term IC50 denotes the midpoint of a concentration-inhibition curve. The low end stands for higher potency, the high end for lower potency. Regarding `CCCCC#CCSc1ccccc1OC(C)=O` [APHS, o-(acetoxyphenyl)hept-2-ynyl sulfide], the “gag cDNA levels versus untreated PBMC” value in the series with HIV-1HXB2 (10 µM APHS) is “no significant differences”. For the same compound, the “(-) strong stop DNA copy numbers versus untreated PBMC” value with HIV-1HXB2 (10 or 30 µM APHS, 5 or 1000 nM AZT) was “did not show a significant decrease”. Besides, the inhibition at 30 µM with HIV-1HXB2 (Human immunodeficiency virus 1, 30 µM APHS, PBMC, read-out: inhibited gag production) is 60%. For the same compound, in the series with HIV-1Ba-L, the “viral entry” value is reported as “no inhibition of viral entry”. The IC50 in the series with 41+215Y came out at 2100 ± 1000 nM; in the series on 41+215Y (Human immunodeficiency virus 1, MT2, 120 h) it was 2000 nM. Also, the “inhibition of RSV replication” value with RSV serotype A is “no inhibition of RSV replication”. Moreover, the “toxicity in the rat air pouch model” value in series [1] is given as “no toxicity”. Moreover, the “effect on MHV replication (CPE)” value with MHV-A59 is given as “no effect”.
